This is an account of results in publication PMC10613275 (Scientific Reports, 2023).

This assay relates to NRF2-ARE signal pathway. The assay can be described thus: NRF2-ARE signal pathway activation, luciferase reporter in transfected HEK293. Particulars: HEK293, 100 µM (Table 1), 18 h. The class given is cell-based, human. The source says:
[…]. HEK293 cells were transiently transfected with reporter plasmid pGL4.32 (luc2P/NF-κB-RE/Hygro, Promega Corporation, Madison, Wisconsin, USA) or pGL4.37 (luc2P/NRF2-ARE/Hygro) using FuGENE (Promega Corporation). Plasmid pEGFP-C1 carrying the gene for green fluorescent protein (GFP) was co-transfected with the reporter plasmids as a normalization plasmid enabling normalization of the signal to transfection level. To test the activation of NF-κB pathway, TNFα (in the range from 13 to 200 pg/ml) as a positive control or samples (50 µM) were incubated with the cells for 5 h. […] The fluorescence (488/513 nm) was determined using SpectraMax i3x Multi-Mode Microplate Reader (Molecular Devices, San Jose, California, USA). Subsequent quantification of luciferase activity was performed using the Bright-Glo™ Luciferase Assay System (Promega Corporation) according to the manufacturer’s instructions.
On the technique in general: In a reporter assay the amount or activity of a reporter protein is the signal.

Regarding `CC(C=O)Cc1ccc(C(C)(C)C)cc1` (centres unmarked) [Lilial, 3-(4-(tert-butyl)phenyl)-2-methylpropanal], the “NRF2-ARE signal pathway activation result” value is listed as “Non activator”. Besides, the “NRF2-ARE signal pathway activation result” value (listed as lilial) is “neither the NF-kB (Fig. 7) nor NRF2 (Fig. 8) signalling pathway was activated”.
